Results as given in patent publication US11419869B2, “Dosage forms and regimens for amino acid compounds” (Pliant Therapeutics, Inc., priority 2019, dated 2022).

Key:
[1] = molecular target: recombinant human integrin αvβ6 (Homo sapiens (Human), UniProt P06756+P18564); assay: Solid Phase Integrin αvβ6 Binding Assay (Examples B1, B2); details: TGFβ1 LAP ligand, values given in four ranges, read-out: αvβ6 Inhibition IC50 (nM)-range
Outline: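 Plates coated with recombinant human αvβ6 (2 μg/mL) compete compound against recombinant TGFβ1 LAP (0.67 μg/mL) in TBS binding buffer with 0.5 mM MnCl2, 2 h at 25 °C. Bound LAP detected with biotin-anti-hLAP and peroxidase-streptavidin; IC50 by four-parameter logistic regression.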

[2] = test system: Type I Collagen gene Col1a1 expression; assay: Precision cut lung slices, mice under acute bleomycin exposure (Example B8); format: cell-based; details: 3 days culture, normalized to DMSO, FIG. 5A
Experimental: Mice (C57BL/6) were administered 3 U/kg of bleomycin (Teva Pharmaceuticals; North Wales, Pa.) on day 0 via oropharyngeal aspiration while under anesthesia. On day 14, precision cut lung slices were obtained. Following euthanization, 2% low gelling temp agarose was injected into the mouse lungs via the trachea. […] The lobes were then subjected to precision slicing to obtain samples for culture using a microtome (Compresstome VF-300-0Z, Precisionary; Greenville, N.C.). Individual slices were distributed in a multiwell culture plate and cultured for 3 days under control (DMSO) and test compound conditions.

[3] = SAD and MAD first-in-human pharmacokinetic studies (Example B12); format: in vivo
Experimental: Healthy human subjects (N=85) were selected for single ascending dose (SAD) and multiple ascending dose (MAD) first-in-human studies. A solution for oral administration was prepared, containing 10 mg/mL of compound 5 in a 50:50 mixture of ORA-SWEET® SF (PERRIGO®, Allegan, Mich.) and sterile water for irrigation. Sufficient solution was administered orally to the subjects to provide between 15 mg/dose and 75 mg/dose of compound 5 in the SAD study and between 10 mg/dose and 40 mg/dose of compound 5 in the MAD study. Concentrations of compound 5 were measured in the subjects by obtaining a sample of plasma from each subject at desired intervals, and subjecting the plasma to liquid chromatography-mass spectrometry-mass spectrometry (LC-MS/MS), with quantification using a calibration curve determined from a range of solutions at standardized concentrations. The lower limit of quantitation (LLOQ) of the assay was 1 ng/mL and the calibration curve range was 1 to 500 ng/mL.

pSMAD2:SMAD2 ratio = assay: pSMAD2/SMAD2 in BAL from healthy human subjects (Example B13); format: in vivo; details: Day 7, subjects with Cmax above 700 ng/mL, compared to placebo group, 20 or 40 mg daily
Experimental: In order to evaluate the change of pSMAD2 as a biomarker of TGF-β activity following administration of an integrin inhibitor, and to determine a therapeutically effective dosage and an effective blood plasma Cmax of the integrin inhibitor, healthy subjects were administered compound 5, a dual selective αvβ6/αvβ1-integrin inhibitor, and the corresponding Cmax levels and decrease in phosphorylation levels and were determined.
Healthy non-smoking adult males without history of lung disease were selected as subjects and were randomized into 4 cohorts. Broncoalevaolar lavage samples were obtained from all subjects 1 day prior to start of treatment. Cohorts 1 and 2 were administered 20 mg of a compound daily, wherein 3 subjects were administered the dual selective αvβ6/αvβ1-integrin inhibitor (compound 5) per every 1 subject receiving a placebo compound. Cohorts 3 and 4 were administered 40 mg of a compound daily, wherein 3 subjects were administered the dual selective αvβ6/αvβ1-integrin inhibitor (compound 5) per every 1 subject receiving a placebo compound. BAL samples and blood samples were taken from all subjects on Day −1 (baseline) and on Day 7 (end of treatment).

recombinant human integrin αvβ6, sequence (P06756 31-992): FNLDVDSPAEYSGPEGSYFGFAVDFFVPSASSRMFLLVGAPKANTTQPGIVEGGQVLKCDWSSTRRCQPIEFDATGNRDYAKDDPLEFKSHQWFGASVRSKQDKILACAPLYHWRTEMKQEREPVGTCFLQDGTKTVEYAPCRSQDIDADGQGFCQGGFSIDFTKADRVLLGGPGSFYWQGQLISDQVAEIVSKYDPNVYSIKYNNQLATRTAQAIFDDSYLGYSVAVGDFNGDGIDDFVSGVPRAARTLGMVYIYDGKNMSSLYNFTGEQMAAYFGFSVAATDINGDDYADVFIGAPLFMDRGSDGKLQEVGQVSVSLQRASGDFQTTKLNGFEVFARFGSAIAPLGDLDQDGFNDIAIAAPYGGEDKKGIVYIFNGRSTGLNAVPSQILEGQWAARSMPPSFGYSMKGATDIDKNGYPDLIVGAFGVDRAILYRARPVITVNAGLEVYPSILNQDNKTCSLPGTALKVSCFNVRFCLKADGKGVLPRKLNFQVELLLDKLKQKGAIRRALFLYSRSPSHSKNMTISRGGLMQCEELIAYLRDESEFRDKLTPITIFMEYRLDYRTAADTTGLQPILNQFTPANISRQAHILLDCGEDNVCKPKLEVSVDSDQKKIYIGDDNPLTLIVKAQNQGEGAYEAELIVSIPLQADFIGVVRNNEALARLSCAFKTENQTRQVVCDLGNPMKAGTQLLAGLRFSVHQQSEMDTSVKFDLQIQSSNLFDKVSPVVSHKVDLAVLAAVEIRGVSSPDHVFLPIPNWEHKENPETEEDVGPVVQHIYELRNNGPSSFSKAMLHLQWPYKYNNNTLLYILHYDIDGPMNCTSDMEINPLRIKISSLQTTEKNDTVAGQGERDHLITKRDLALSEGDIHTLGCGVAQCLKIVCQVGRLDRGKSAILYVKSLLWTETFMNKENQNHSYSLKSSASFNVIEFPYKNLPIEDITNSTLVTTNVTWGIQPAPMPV
recombinant human integrin αvβ6, sequence (P18564 22-707): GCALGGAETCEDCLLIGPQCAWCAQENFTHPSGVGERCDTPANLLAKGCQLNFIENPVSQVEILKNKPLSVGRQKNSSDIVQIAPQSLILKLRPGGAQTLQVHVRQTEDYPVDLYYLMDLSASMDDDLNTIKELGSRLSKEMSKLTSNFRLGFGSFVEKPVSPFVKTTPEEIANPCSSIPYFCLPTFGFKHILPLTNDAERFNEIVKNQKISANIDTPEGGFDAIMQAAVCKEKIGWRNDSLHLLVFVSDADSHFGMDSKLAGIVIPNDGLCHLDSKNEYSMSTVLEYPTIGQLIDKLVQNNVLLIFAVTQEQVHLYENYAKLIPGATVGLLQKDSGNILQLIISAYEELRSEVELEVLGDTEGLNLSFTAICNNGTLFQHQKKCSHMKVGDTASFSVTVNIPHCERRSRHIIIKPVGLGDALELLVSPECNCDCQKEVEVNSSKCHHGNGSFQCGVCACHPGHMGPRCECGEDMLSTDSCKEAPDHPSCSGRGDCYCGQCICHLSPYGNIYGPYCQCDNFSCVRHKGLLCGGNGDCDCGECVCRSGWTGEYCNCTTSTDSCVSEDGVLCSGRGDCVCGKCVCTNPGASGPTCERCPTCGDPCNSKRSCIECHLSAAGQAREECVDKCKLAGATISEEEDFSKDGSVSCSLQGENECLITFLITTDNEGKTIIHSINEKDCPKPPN

Compound: COCCN(CCCCc1ccc2c(n1)NCCC2)CC[C@H](Nc1ncnc2ccccc12)C(=O)O [Compound 5, (S)-4-((2-methoxyethyl) (4-(5,6,7,8-tetrahydro-1,8-naphthyridin-2-yl)butyl)amino)-2-(quinazolin-4-ylamino) butanoic acid]
- IC50 [1]: < 50 nM
- Type I Collagen gene Col1a1 expression [2]: decreased Type I Collagen gene Col1a1 expression substantially
- oral bioavailability and pharmacokinetics ([3]; healthy subjects): good oral bioavailability and pharmacokinetics
- half-life ([3]; plasma, healthy human subjects, oral solution, SAD 15-75 mg, MAD 10-40 mg, read-out: calculated half life): 18 to 20 h
- reduction in pSMAD2:SMAD2 ratio (pSMAD2:SMAD2 ratio): ≥ 50%
